Measurements reported in patent US20260199273A1, “Compounds for the Treatment of Neuromuscular Disorders” (NMD PHARMA A/S, priority 2022, published 2026).

Experiments:
[1] = target: T1, CIC-1 ion channel (Rattus norvegicus, UniProt P35524); assay: Electrophysiological measurement of compound inhibition of CIC-1 in rat muscle (Gm in soleus fibres, three micro-electrodes); type: cell-based; conditions: Gm in individual fibres of whole rat soleus muscles, approx. 30° C., four increasing compound concentrations; read-out: Potency Range (EC50, inhibition of CIC-1 ion channel)
T1 construct: from tissue; host or cells: whole soleus muscle of 12-14 week old Wistar rats
T1 sequence (P35524 1-994): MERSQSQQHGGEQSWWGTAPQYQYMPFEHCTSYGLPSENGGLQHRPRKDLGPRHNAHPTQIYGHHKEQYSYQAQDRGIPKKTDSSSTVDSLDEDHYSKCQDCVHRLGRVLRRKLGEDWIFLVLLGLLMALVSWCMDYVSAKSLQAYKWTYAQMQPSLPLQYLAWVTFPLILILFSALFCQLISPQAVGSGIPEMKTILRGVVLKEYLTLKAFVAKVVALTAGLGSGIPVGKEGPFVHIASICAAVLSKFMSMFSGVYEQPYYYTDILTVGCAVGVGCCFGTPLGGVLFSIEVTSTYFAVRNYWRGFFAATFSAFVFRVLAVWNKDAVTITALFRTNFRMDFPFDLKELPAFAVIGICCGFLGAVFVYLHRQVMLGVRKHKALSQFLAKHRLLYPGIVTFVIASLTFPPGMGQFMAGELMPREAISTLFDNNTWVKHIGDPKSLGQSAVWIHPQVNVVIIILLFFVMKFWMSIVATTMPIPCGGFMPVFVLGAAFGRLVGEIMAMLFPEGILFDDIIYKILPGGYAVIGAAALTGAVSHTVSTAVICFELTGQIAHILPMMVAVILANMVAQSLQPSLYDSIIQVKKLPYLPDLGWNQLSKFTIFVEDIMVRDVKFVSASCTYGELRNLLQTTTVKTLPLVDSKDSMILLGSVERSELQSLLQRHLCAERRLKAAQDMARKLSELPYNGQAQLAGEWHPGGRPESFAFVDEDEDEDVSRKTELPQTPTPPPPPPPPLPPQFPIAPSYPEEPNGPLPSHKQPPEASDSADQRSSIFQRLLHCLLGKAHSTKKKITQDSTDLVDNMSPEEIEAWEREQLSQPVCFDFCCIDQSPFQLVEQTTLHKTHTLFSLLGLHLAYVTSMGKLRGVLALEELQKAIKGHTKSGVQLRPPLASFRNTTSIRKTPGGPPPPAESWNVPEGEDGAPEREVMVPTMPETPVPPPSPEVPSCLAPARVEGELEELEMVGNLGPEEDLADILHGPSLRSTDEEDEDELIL
Summary of the method: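 Membrane conductance (Gm) recorded by three micro-electrodes in soleus fibres of intact muscles from 12-14 week old Wistar rats, Krebs Ringer, ~30° C, pH ~7.4; 50 ms −30 nA pulses, Gm from cable-theory fit. Control Gm in 10 fibres, then four rising concentrations (5-10 fibres each); EC50 by sigmoidal fit.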

[2] = tested on: isolated rat soleus nerve-muscle preparations; assay: Measurement of force in an in vitro model: recovery of nerve-stimulated contractile force after tubocurarine; conditions: 40 min, after 40 mins of compound exposure, tubocurarine (115 nM) for 90 minutes, read-out: Point increase (%): percentage increase of initial force that was restored; for activation at 10 µM: 10 μM of test compound
Summary of the method: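 Isolated soleus nerve-muscle preparations from 4-5 week old rats, nerve-stimulated in Krebs Ringer at 30° C, 95% O2/5% CO2, pH ~7.4. Force reduced with 115 nM tubocurarine for 90 min, then compound added. Value is percentage-point increase in initial force restored after 40 min compound exposure.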

Compound | EC50 [1] [nM] | activation at 50 µM ([2]; 50 μM of test compound) [%] | activation at 10 µM [2] [%]
O=C(O)c1c(F)c(C2CC2)cc2c1CCCC2 [Compound A-54, 3-Cyclopropyl-2-fluoro-5,6,7,8-tetrahydronaphthalene-1-carboxylic acid] | 10000 to 20000 | 47 | 
O=C(O)c1c(Cl)c(F)cc2c1OCCCC2 [Compound A-56, 8-chloro-7-fluoro-2,3,4,5-tetrahydro-1-benzoxepine-9-carboxylic acid] | 2000 to 10000 |  | 31
COc1c(Cl)cc2c(c1C(=O)O)C(F)(F)CCC2 [Compound A-59, 3-chloro-8,8-difluoro-2-methoxy-5,6,7,8-tetrahydronaphthalene-1-carboxylic acid] | 2000 to 10000 |  | 53
CC1(C)CCc2cc(Cl)c(F)c(C(=O)O)c2O1 [Compound A-61, 6-Chloro-7-fluoro-2,2-dimethyl-3,4-dihydro-2H-1-benzopyran-8-carboxylic acid] | 200 to 2000 |  | 63
O=C(O)c1c(F)c(Cl)cc2c1CCC2 [Compound A-63, 6-Chloro-5-fluoro-2,3-dihydro-1H-indene-4-carboxylic acid] | 2000 to 10000 |  | 28
O=C(O)c1c(F)c(Cl)cc2c1CCCS2 [Compound A-65, 7-chloro-6-fluoro-3,4-dihydro-2H-1-benzothiopyran-5-carboxylic acid] | 200 to 2000 |  | 49
COc1c(Cl)cc2c(c1C(=O)O)OCCC2 [Compound A-69, 6-Chloro-7-methoxy-3,4-dihydro-2H-1-benzopyran-8-carboxylic acid] | 200 to 2000 |  | 55
O=C(O)c1c(F)c(Cl)cc2c1N(Cc1ccsc1)CCC2 [Compound A-70, 6-Chloro-7-fluoro-1-[(3-thienyl)methyl]-1,2,3,4-tetrahydro-8-quinolinecarboxylic acid] | 200 to 2000 |  | 25
O=C(O)c1c(F)c(Cl)cc2c1N(Cc1ccccc1)CCC2 [Compound A-71, 1-Benzyl-6-chloro-7-fluoro-1,2,3,4-tetrahydro-8-quinolinecarboxylic acid] | 200 to 2000 |  | 23
O=C(O)c1c(F)c(Cl)cc2c1N(Cc1ccc(F)cc1)CCC2 [Compound A-72, 6-Chloro-7-fluoro-1-[(p-fluorophenyl)methyl]-1,2,3,4-tetrahydro-8-quinolinecarboxylic acid] | 200 to 2000 |  | 20
COc1c(Cl)cc2c(c1C(=O)O)CCCC2(F)F [Compound A-73, 3-Chloro-5,5-difluoro-2-methoxy-5,6,7,8-tetrahydro-1-naphthoic acid] | 200 to 2000 |  | 23
O=C(O)c1c(Cl)c(F)cc2c1N(Cc1ccccc1)CCC2 [Compound A-74, 1-Benzyl-7-chloro-6-fluoro-1,2,3,4-tetrahydro-8-quinolinecarboxylic acid] | 200 to 2000 |  | 11
